The source of these data is patent publication US20050113420A1, “Methionine aminopeptidase inhibitor” (priority 2002, published 2005).

In general, IC50 refers to the concentration at which inhibition is half-maximal. Usually inhibition stands for the share of the control response that was lost under treatment. One may read the pIC50 as the negative decadic logarithm of the IC50, by convention in mol/L.

pIC50: −log10 of the molar value.

One assay has as its target hMetAP1 (Homo sapiens, UniProt P53582). Briefly: hMetAP1 inhibition. The format is biochemical. An excerpt:
(§1) Hydrolysis of the synthesized Met-S-C-Phe thiopeptolide substrate generates a free thiol group, which reacts with excessive DTNB instantly to produce a highly chromogenic product, 3-carboxyl-4-nitrothiophenol (ε412=13,600 M^−1cm^−1). Therefore, the enzymatic reaction catalyzed by MetAP can be continuously monitored at 412 nm on a SpectraMAX 340 microplate reader.
(§2) Employed conventional screening method (Anal Biochem. 2000, 280: 159-65)
(§3) All the compounds were initially screened at the multiple concentrations 2 μg/mL, 20 μg/mL, 100 μg/mL. When the inhibitory activities of the compounds were larger than 50%, their estimated IC50 value were determinated at eight inhibitor concentrations.

For the next assay, the target named is T1, EcMetAP (Escherichia coli, UniProt P0AE18).
T1 construct: made in house; host or cells: E. coli
Put plainly: EcMetAP inhibition, Met-S-C-Phe thiopeptolide/DTNB assay at 412 nm. The conditions noted are these: for IC50: Co-loaded enzyme, estimated IC50 at eight inhibitor concentrations, read-out: IC50(μM) EMetAP. The format is biochemical, E. coli.
From the text: EcMetAP was cloned and overexpressed in E. coli, and purified by (NH4)2SO4 precipitation and Q-Sepharose column separation to give apo-EcMetAP.
as §1, §2, §3

Assay [1] addresses type 2 methionine aminopeptidase (Homo sapiens, UniProt P50579). As to conditions: covalent binding inhibitors; cited from earlier work.
In a further assay the target is EcMetAP1 (Escherichia coli, UniProt P0AE18). The conditions noted are these: read-out: IC50 EcMetAP1; cited from earlier work.
Chain of EcMetAP1 (P0AE18 whole entry): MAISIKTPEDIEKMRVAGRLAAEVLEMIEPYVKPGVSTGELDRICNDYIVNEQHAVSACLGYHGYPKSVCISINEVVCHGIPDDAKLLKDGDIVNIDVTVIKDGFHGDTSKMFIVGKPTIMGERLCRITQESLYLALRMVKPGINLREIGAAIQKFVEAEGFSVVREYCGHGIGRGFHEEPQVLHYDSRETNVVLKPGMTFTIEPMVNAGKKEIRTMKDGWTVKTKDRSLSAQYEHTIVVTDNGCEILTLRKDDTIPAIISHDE

T1 sequence (P0AE18 whole entry): as above
Chain of type 2 methionine aminopeptidase (P50579 whole entry): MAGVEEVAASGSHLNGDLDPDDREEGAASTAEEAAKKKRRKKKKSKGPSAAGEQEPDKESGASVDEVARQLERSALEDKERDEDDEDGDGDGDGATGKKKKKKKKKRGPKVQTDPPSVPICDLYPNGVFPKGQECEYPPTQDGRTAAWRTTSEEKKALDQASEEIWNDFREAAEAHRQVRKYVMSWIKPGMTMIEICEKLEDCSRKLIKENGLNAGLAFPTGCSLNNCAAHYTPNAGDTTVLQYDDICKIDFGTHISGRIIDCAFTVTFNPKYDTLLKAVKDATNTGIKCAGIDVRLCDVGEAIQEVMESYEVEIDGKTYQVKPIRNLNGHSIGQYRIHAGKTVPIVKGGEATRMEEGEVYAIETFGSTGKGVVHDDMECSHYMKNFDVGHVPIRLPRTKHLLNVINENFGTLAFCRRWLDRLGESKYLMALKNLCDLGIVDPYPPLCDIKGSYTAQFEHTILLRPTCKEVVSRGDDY

Turning to `CC(=O)Oc1cccnc1C(=O)Nc1nccs1` [Compound 34], the IC50 on hMetAP1 was 29 µM; on EcMetAP it was 8.2 µM.

On to `COc1ccnc(C(=O)Nc2nccs2)c1` [Compound 30], for which, on EcMetAP, the IC50 is 9.22 µM.

On to `Cc1nc(C(=O)Nc2nccs2)cs1` [Compound 55], for which the IC50 at EcMetAP is 0.4 µM.

With `O=C(Oc1cccnc1C(=O)Nc1nccs1)c1ccc(F)c(Br)c1` [Compound 45], the IC50 is 17.4 µM at hMetAP1 and 1.35 µM on EcMetAP.

With `O=C(Nc1nccs1)c1cccc(CO)n1` [Compound 32], on EcMetAP, the IC50 is 5.82 µM.

For the compound `CC(C)(C)OC(=O)Nc1cccnc1C(=O)Nc1nccs1` [Compound 52], the IC50 at EcMetAP is 1.25 µM.

Regarding `O=C(Nc1nccs1)c1ccc2ccccc2n1` [Compound 27], the IC50 at EcMetAP was 51 µM.

As to `O=C(Nc1nccs1)c1cc(Cl)ccn1` [Compound 16], at EcMetAP, the concentration for half-maximal inhibition (IC50) is 4.84 µM.

Consider `O=C(Oc1cccnc1C(=O)Nc1nccs1)c1cccc([N+](=O)[O-])c1` [Compound 41], for which the values for the IC50 against hMetAP1 and on EcMetAP were 7.3 µM and 1.91 µM, respectively.

As to `CO[C@@H]1[C@H](OC(=O)NC(=O)CCl)CC[C@]2(CO2)[C@H]1[C@@]1(C)O[C@@H]1CC=C(C)C` [TNP-470], the “IC50 MetAPs” value in assay [1] was “in the nM range”.

Regarding `Nc1cccnc1C(=O)Nc1nccs1` [Compound 50], the IC50 on hMetAP1 is 11 µM; at EcMetAP, 5.56 µM.

For `O=C(Nc1ncc(Br)s1)c1ccccn1` [Compound 17], at EcMetAP, the IC50 was 6 µM.

With `O=C(Nc1cccnc1C(=O)Nc1nccs1)c1ccc(F)cc1` [Compound 53], the IC50 on EcMetAP is 0.05 µM.

For `Nc1ccccc1C(=O)Nc1nccs1` [Compound 7], the inhibition at 20 µg/mL on EcMetAP (read-out: inhibition of EMetAP) turned out to be 30%.

With `COc1ccccc1/C=C/C(=O)Oc1cccnc1C(=O)Nc1nccs1` [Compound 44], the IC50 on EcMetAP was 1.8 µM.

With `COc1ccccc1C(=O)Oc1cccnc1C(=O)Nc1nccs1` [Compound 37], the figures for the IC50 against hMetAP1 and on EcMetAP were 15.4 µM and 1.9 µM, respectively.

`COc1cccnc1C(=O)Nc1nccs1` [Compound 35]: the results for the IC50 against hMetAP1 and at EcMetAP were 20.9 µM and 4.49 µM, respectively.

For AHHPA-Ala-Leu-Val-Phe-OMe, at EcMetAP1, the pIC50 is 5.30.

As to `O=C(Nc1nccs1)c1ncccc1O` [Compound 31], at EcMetAP, the IC50 is 2.33 µM.

Consider `CO[C@@H]1[C@H](OC(=O)/C=C/C=C/C=C/C=C/C(=O)O)CC[C@]2(CO2)[C@H]1[C@@]1(C)O[C@@H]1CC=C(C)C` [fumagillin], for which the “IC50 MetAPs” value in assay [1] is recorded as “in the nM range”.

For `O=C(Oc1cccnc1C(=O)Nc1nccs1)c1ccc(F)cc1` [Compound 46], the IC50 at hMetAP1 was 7 µM; on EcMetAP it was 1.31 µM.

As to `O=C(Nc1cccnc1C(=O)Nc1nccs1)c1ccccc1` [Compound 51], the IC50 at EcMetAP was 0.14 µM.

Consider `O=C(Oc1cccnc1C(=O)Nc1nccs1)c1ccccc1` [Compound 36], for which the IC50 is 28.7 µM on hMetAP1 and 1.1 µM at EcMetAP.

In the case of `O=C(Nc1nccs1)c1ncccc1OCc1ccccc1` [Compound 47], the IC50 on hMetAP1 is 7.8 µM; at EcMetAP, 5.31 µM.
